IC50, remaining binding and inhibition data for two compounds are collected here from patent US20230203031A1, “COMPOUNDS USEFUL FOR INHIBITING CDK7” (Eli Lilly and Company, priority 2020, published 2023).

Each structure is given as a SMILES string.

One assay concerns HCC1806. Description: Cell proliferation assay (CELL TITER GLO), HCC1806. The following applies: Homo sapiens, 144 h; HCC1806 breast cancer, six days after compound addition. It is filed as cell-based. The procedure:
(§1) Cell lines are plated at the density 5000 cells per well in 100 µL per well growth medium into a white 96-well cell culture plate. See Table 1 for cell line and culture medium information. Plates are incubated at 37° C. and 5% CO2. The following day, a serial dilution of the test compound is prepared by diluting the compound 1:3 in DMSO for 10 points. The DMSO plate is 1000X the final concentration. In addition to the CDK7 inhibitor, a DMSO alone column is included as a maximum growth control and 10 µM staurosporine final column is included as a maximum growth inhibition control. A 10X dilution plate is then prepared by adding 2 µL per well from the 1000X DMSO plate to 198 µL per well of OMEM (Life Technologies, Carlsbad, CA, cat#31985-070). Cells are treated with indicated compound by adding 11 µL per well from the 10X OMEM plate to the cell plate containing 100 µL per well growth medium for a 1X final concentration. Plates are placed back into the incubator at 37° C. and 5% CO2. Six or seven days after compound addition, for HCC1806 or A2780 cells respectively, plates are removed from the incubator and allowed to equilibrate to RT. […] After 15 minute incubation on shaker, luminescence is read, 1 second per well, using a Wallac VICTOR2™. […]
(In general: In ATP-based viability assays light output follows the ATP content of the culture.)

Another assay deals with A2780. Description: Cell proliferation assay (CELL TITER GLO), A2780. It is filed as cell-based. As to conditions: Homo sapiens, 168 h; A2780 ovarian cancer, seven days after compound addition. The procedure:
as §1

In a further assay the target is T1, CDK7 (Homo sapiens, UniProt P50613).
T1 construct: purchased DiscoverX Corporation (KINOMEscan service)
T1 sequence (P50613 whole entry): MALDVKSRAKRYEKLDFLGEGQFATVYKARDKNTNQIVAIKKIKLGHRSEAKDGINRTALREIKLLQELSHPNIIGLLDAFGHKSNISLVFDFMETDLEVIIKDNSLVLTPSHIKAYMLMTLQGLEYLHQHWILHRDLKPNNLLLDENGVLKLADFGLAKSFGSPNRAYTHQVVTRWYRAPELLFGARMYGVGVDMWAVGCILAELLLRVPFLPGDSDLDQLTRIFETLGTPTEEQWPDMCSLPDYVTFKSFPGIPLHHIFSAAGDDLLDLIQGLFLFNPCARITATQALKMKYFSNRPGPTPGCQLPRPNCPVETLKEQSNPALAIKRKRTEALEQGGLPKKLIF
In words: DiscoverX KINOMEscan competition binding, CDK7. As to conditions: 0.2 µM compound. The procedure: The purpose of the study is to generate an in vitro selectivity profile of the compounds of Example 8. To address selectivity, the compound of Example 8 is tested in a panel of 468 human kinases at DiscoverX Corporation using the KINOMEscan™ screening platform. KINOMEscan™ employs a novel and proprietary active site-directed competition binding assay to quantitatively measure interactions between test compounds and more than 450 human kinases and disease relevant mutant variants.
Compounds that bind the kinase active site and directly (sterically) or indirectly (allosterically) prevent kinase binding to an immobilized ligand, will reduce the amount of kinase captured on the solid support. […] Compound activity is monitored by measuring the amount of kinase captured in test versus control samples by using a qPCR method that detects the associated DNA label. Further information regarding the DiscoverX Corporation KINOMEscan™ screening platform can be found at http://www.discoverx.com.
Assays to monitor binding to a 468 kinase panel were conducted at DiscoverXⓇ Corporation (Fremont, CA). Example 8 is tested at 20 µM, 2 µM, and 0.2 µM final concentrations. Kinases are tagged with DNA for qPCR detection. […] The kinase concentration in the eluates is measured by qPCR. […]

As a reminder, the IC50 is the concentration needed to halve the response being measured. Read a low IC50 as greater potency. In general, inhibition refers to the drop in the measured response relative to a control, in per cent.

In the case of `C=CC(=O)N1CCO[C@H](CN2CCC(Nc3cc(C(C)F)cn4c(C(C)C)cnc34)CC2)C1` (single isomer, unassigned) [Example 1], the IC50 in the assay on HCC1806 turned out to be 19.5 nM; with A2780 it was 22.8 nM.
`C=CC(=O)N1CCO[C@H](CN2CCC(Nc3cc(C(F)(F)F)cn4c(C(C)C)cnc34)CC2)C1` [Example 8, 1-[(2R)-2-[[4-[[3-isopropyl-6-(trifluoromethyl)imidazo[1,2-a]pyridin-8-yl]amino]-1-piperidyl]methyl]morpholin-4-yl]prop-2-en-1-one]: the remaining binding at 0.2 µM at CDK7 (read-out: % control activity against CDK7) is ~4%. For the same compound, the inhibition at 0.2 µM at CDK7 (read-out: inhibition against CDK7) was ~96%.
